How the values were obtained:
[1] = 294.2 K, Liquid, Hot wire method
[2] = xn = mol fraction of the nth substance listed; conditions: Liquid, Hot wire method

Cn1ccnc1 [1-methylimidazole]
[1]
Conditions | thermal conductivity [W/m/K]
10000 kPa | 0.194
20000 kPa | 0.196

Cn1ccnc1 [1-methylimidazole] + O=C=O
thermal conductivity [W/m/K], [2], 294.2 K
Conditions | x2 = 0 | x2 = 0.157 | x2 = 0.261 | x2 = 0.337 | x2 = 0.43
10000 kPa | 0.194 | 0.187 | 0.184 | 0.18 | 0.176
20000 kPa | 0.196 | 0.19 | 0.187 | 0.184 | 0.18

CCCCn1cc[n+](C)c1.F[P-](F)(F)(F)(F)F [1-butyl-3-methylimidazolium hexafluorophosphate] + O=C=O
thermal conductivity [W/m/K], [2]
Conditions | x2 = 0.108 | x2 = 0.22 | x2 = 0.328 | x2 = 0.42
294.4 K, 10000 kPa | 0.148 | 0.149 | 0.15 | 0.148
294.4 K, 20000 kPa | 0.15 | 0.151 | 0.152 | 0.149
314.5 K, 10000 kPa | 0.149 | 0.149 | 0.152 | 0.148
314.5 K, 20000 kPa | 0.151 | 0.152 | 0.153 | 0.148
334.2 K, 10000 kPa | 0.148 | 0.15 | 0.15 | 0.148
334.2 K, 20000 kPa | 0.151 | 0.152 | 0.151 | 0.149

CCCCn1cc[n+](C)c1.F[B-](F)(F)F [1-butyl-3-methylimidazolium tetrafluoroborate] + O=C=O
thermal conductivity [W/m/K], [2]
Conditions | 294.2 K | 314.3 K | 334.3 K
10000 kPa, x2 = 0.169 | 0.173 | 0.173 | 0.173
10000 kPa, x2 = 0.308 | 0.17 | 0.169 | 0.169
10000 kPa, x2 = 0.422 | 0.171 | 0.17 | 0.169
20000 kPa, x2 = 0.169 | 0.174 | 0.175 | 0.175
20000 kPa, x2 = 0.308 | 0.172 | 0.17 | 0.17
20000 kPa, x2 = 0.422 | 0.171 | 0.17 | 0.169
